According to patent publication US20040224981A1, “Antibacterial methods and compositions” (priority 2003, published 2004):
Converted amounts (≈) assume the structure as drawn. Where two headings read alike, the source gives them in different places.

Key:
[1] = system: S. aureus ATCC 29213 and 31-1334; experiment: Selection of spontaneous resistant mutants (mutation frequency); assay type: cell-based, Staphylococcus aureus
Method: Approximately, 10^9 bacteria were plated onto Mueller-Hinton agar supplemented with 10% horse blood and containing various concentrations of the test compounds alone and in combination. After 24 and 48 hours of incubation at 35° C., the bacterial colonies were counted and the frequencies of mutation were determined relative to the total viable count of organisms that were plated. Resistant clones were re-plated once on plates containing the same concentration of agent that was used for the selection.

S. aureus = experiment: MIC against S. aureus strains and clinical isolates (broth microdilution); assay type: cell-based, Staphylococcus aureus; conditions: for MIC50: read-out: MIC50
How it was run: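 Broth microdilution per NCCLS in cation-supplemented Mueller-Hinton broth, final inoculum 5×10^5 CFU/ml from 0.5 McFarland suspensions diluted 1:10. Trays incubated aerobically overnight with quality control strains each run. Checkerboard FIC index: ≦0.5 synergy, >0.5 to 4 additive/indifferent, >4.0 antagonism.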

[2] = system: mupirocin-resistant S. aureus; conditions: cited from earlier work
[3] = system: S. aureus RN4220 (pYH4-MRS); experiment: Mode of action: MIC with MRS over-production; assay type: cell-based; conditions: S. aureus RN4220 (pYH4-MRS), +aTC (MRS over-expression)
Method: The strain expresses high levels of MRS upon the addition of 0.01 μg/mL of anyhdrotetracycline.

C/C(=C\C(=O)OCCCCCCCCC(=O)O)C[C@@H]1OC[C@H](C[C@@H]2O[C@H]2[C@@H](C)[C@H](C)O)[C@@H](O)[C@H]1O [Mupirocin, Pseudomonic acid A]
Mutation Frequency (48 hours) ([1]; S. aureus 31-1334 (low level mupirocin-resistant), selecting concentration 2 x MIC): 1.8 × 10^−8 | Mutation Frequency (48 hours) ([1]; S. aureus 31-1334 (low level mupirocin-resistant), selecting concentration 4 x MIC): 2 × 10^−9 | Mutation Frequency (48 hours) ([1]; S. aureus 31-1334 (low level mupirocin-resistant), selecting concentration 8 x MIC): <1 × 10^−9 | Mutation Frequency (48 hours) ([1]; S. aureus ATCC 29213 (mupirocin susceptible), selecting concentration 2 x MIC): 1.25 × 10^−7 | Mutation Frequency (48 hours) ([1]; S. aureus ATCC 29213 (mupirocin susceptible), selecting concentration 4 x MIC): 1.01 × 10^−7 | Mutation Frequency (48 hours) ([1]; S. aureus ATCC 29213 (mupirocin susceptible), selecting concentration 8 x MIC): 2.57 × 10^−8 | MIC (S. aureus; Staphylococcus aureus, ATCC29213, Table 2, S. aureus ATCC 29213, read-out: MIC): 0.12 µg/mL | MIC (S. aureus; Staphylococcus aureus, ATCC29213, Table 3, S. aureus ATCC 29213, read-out: MIC): 0.12 µg/mL | MIC (S. aureus; Staphylococcus aureus, ATCC29213, Table 4, S. aureus ATCC 29213, read-out: MIC): 0.12 µg/mL | MIC (S. aureus; Staphylococcus aureus, ATCC43300, S. aureus ATCC 43300 (ORSA), read-out: MIC): 0.12 µg/mL | MIC (S. aureus; Staphylococcus aureus, ATCC43300, Table 2, S. aureus ATCC 43300 (ORSA), read-out: MIC): 0.25 µg/mL | MIC (S. aureus; Staphylococcus aureus, ATCC43300, Table 3, S. aureus ATCC 43300 (ORSA), read-out: MIC): 0.25 µg/mL | MIC (S. aureus; Staphylococcus aureus, NRS 1 / VISA, S. aureus NRS1 (VISA), read-out: MIC): 0.12 µg/mL | MIC (S. aureus; Staphylococcus aureus, NRS 1 / VISA, VISA, S. aureus NRS1 (Mu50), read-out: MIC): 0.06 µg/mL | MIC (S. aureus; Staphylococcus aureus, NRS 3 / VISA, VISA, S. aureus NRS3 (HIP5827), read-out: MIC): 0.5 µg/mL | MIC (S. aureus; Staphylococcus aureus, NRS 4 / VISA, VISA, S. aureus NRS4 (HIP5836), read-out: MIC): 0.12 µg/mL | MIC (S. aureus; Staphylococcus aureus, NRS 18 / VISA, VISA, S. aureus NRS18 (HIP06854), read-out: MIC): 8 µg/mL | MIC (S. aureus; Staphylococcus aureus, NRS 24 / VISA, VISA, S. aureus NRS24 (HIP09143), read-out: MIC): 8 µg/mL | MIC (S. aureus; Staphylococcus aureus, NRS 49 / VISA, VISA, S. aureus NRS49 (Korea), read-out: MIC): 0.03 µg/mL | MIC (S. aureus; Staphylococcus aureus, NRS54, Table 6, high-level mupirocin-resistant S. aureus NRS54, read-out: MIC): > 256 µg/mL | MIC (S. aureus; Staphylococcus aureus, NRS 54 / VISA, VISA, S. aureus NRS54 (Brazil), read-out: MIC): > 8 µg/mL | MIC (S. aureus; Staphylococcus aureus, NRS 56 / VISA, VISA, S. aureus NRS56 (Brazil), read-out: MIC): 0.12 µg/mL | MIC (S. aureus; Staphylococcus aureus, NRS107, S. aureus NRS107 (HL Mup rest.), read-out: MIC): > 64 µg/mL | MIC (S. aureus; Staphylococcus aureus, NRS107, Table 2, S. aureus NRS107 (mupA), read-out: MIC): > 8 µg/mL | MIC (S. aureus; Staphylococcus aureus, NRS107, Table 3, S. aureus NRS107 (mupA), read-out: MIC): > 8 µg/mL | MIC (S. aureus; Staphylococcus aureus, NRS107, Table 4, S. aureus NRS107 (mupA), read-out: MIC): > 8 µg/mL | MIC (S. aureus; Staphylococcus aureus, NRS107, Table 6, high-level mupirocin-resistant S. aureus NRS107, read-out: MIC): > 256 µg/mL | MIC (S. aureus; Staphylococcus aureus, NRS127, Table 6, low-level mupirocin-resistant S. aureus NRS127, read-out: MIC): 32 µg/mL | MIC (S. aureus; Staphylococcus aureus, S. aureus 10-420 (LL Mup. Rest.), read-out: MIC): > 64 µg/mL | MIC (S. aureus; Staphylococcus aureus, S. aureus 14-354 (LL Mup. Rest.), read-out: MIC): 64 µg/mL | MIC (S. aureus; Staphylococcus aureus, S. aureus 25-670 (HL Mup. Rest.), read-out: MIC): > 64 µg/mL | MIC (S. aureus; Staphylococcus aureus, S. aureus 31-1334 (LL Mup Rest.), read-out: MIC): 32 µg/mL | MIC (S. aureus; Staphylococcus aureus, S. aureus 36-1298 (LL Mup. Rest.), read-out: MIC): 32 µg/mL | MIC (S. aureus; Staphylococcus aureus, S. aureus 87-2797 (HL Mup. Rest.), read-out: MIC): > 64 µg/mL | MIC (S. aureus; Staphylococcus aureus, S. aureus 87-2797 (Mup. Susc.), read-out: MIC): 0.25 µg/mL | MIC (S. aureus; Staphylococcus aureus, S. aureus 101-100 (Mup. Susc.), read-out: MIC): < 0.06 µg/mL | MIC (S. aureus; Staphylococcus aureus, S. aureus LZ1 (HL Mup rest.), read-out: MIC): > 64 µg/mL | MIC (S. aureus; Staphylococcus aureus, S. aureus LZ6 (HL Mup rest.), read-out: MIC): > 64 µg/mL | MIC (S. aureus; Staphylococcus aureus, S. aureus LZ8 (LL Mup. Rest.), read-out: MIC): 32 µg/mL | MIC (S. aureus; Staphylococcus aureus, S. aureus LZ9, read-out: MIC): 0.25 µg/mL | MIC (S. aureus; Staphylococcus aureus, S. aureus LZ10, read-out: MIC): 0.25 µg/mL | MIC (S. aureus; Staphylococcus aureus, S. aureus Miles Hall, read-out: MIC): 64 µg/mL | MIC (S. aureus; Staphylococcus aureus, S. aureus Oxford, read-out: MIC): 0.12 µg/mL | MIC (S. aureus; Staphylococcus aureus, Table 6, S. aureus (mupirocin-susceptible) 010-100, read-out: MIC): 0.06 µg/mL | MIC (S. aureus; Staphylococcus aureus, Table 6, S. aureus (mupirocin-susceptible) 087-2789, read-out: MIC): 0.12 µg/mL | MIC (S. aureus; Staphylococcus aureus, Table 6, S. aureus (mupirocin-susceptible) LZ9, read-out: MIC): 0.12 µg/mL | MIC (S. aureus; Staphylococcus aureus, Table 6, S. aureus (mupirocin-susceptible) LZ10, read-out: MIC): 0.12 µg/mL | MIC (S. aureus; Staphylococcus aureus, Table 6, high-level mupirocin-resistant S. aureus 010-420, read-out: MIC): > 256 µg/mL | MIC (S. aureus; Staphylococcus aureus, Table 6, high-level mupirocin-resistant S. aureus 25-670, read-out: MIC): > 256 µg/mL | MIC (S. aureus; Staphylococcus aureus, Table 6, high-level mupirocin-resistant S. aureus 87-2797, read-out: MIC): > 256 µg/mL | MIC (S. aureus; Staphylococcus aureus, Table 6, high-level mupirocin-resistant S. aureus 1079101, read-out: MIC): > 256 µg/mL | MIC (S. aureus; Staphylococcus aureus, Table 6, high-level mupirocin-resistant S. aureus LZ1, read-out: MIC): > 256 µg/mL | MIC (S. aureus; Staphylococcus aureus, Table 6, high-level mupirocin-resistant S. aureus LZ6, read-out: MIC): > 256 µg/mL | MIC (S. aureus; Staphylococcus aureus, Table 6, low-level mupirocin-resistant S. aureus 014-354, read-out: MIC): 16 µg/mL | MIC (S. aureus; Staphylococcus aureus, Table 6, low-level mupirocin-resistant S. aureus 031-1334, read-out: MIC): 16 µg/mL | MIC (S. aureus; Staphylococcus aureus, Table 6, low-level mupirocin-resistant S. aureus 036-1298, read-out: MIC): 16 µg/mL | MIC (S. aureus; Staphylococcus aureus, Table 6, low-level mupirocin-resistant S. aureus 1081148, read-out: MIC): 16 µg/mL | MIC (S. aureus; Staphylococcus aureus, Table 6, low-level mupirocin-resistant S. aureus LZ8, read-out: MIC): 16 µg/mL | MIC (S. aureus; Staphylococcus aureus, Table 6, low-level mupirocin-resistant S. aureus Miles Hall, read-out: MIC): 32 µg/mL | MIC (S. aureus; Staphylococcus aureus, VISA, three of the VISA isolates (poor activity), read-out: MICs): > 8 µg/mL | MIC50 (S. aureus; Staphylococcus aureus, all S. aureus isolates of Table 6): 32 µg/mL | MIC90 (S. aureus; Staphylococcus aureus, all S. aureus isolates of Table 6, read-out: MIC90): > 256 µg/mL | MIC90 (S. aureus; Staphylococcus aureus, all S. aureus strains of Table 1, read-out: MIC 90): > 64 µg/mL | MIC50 (S. aureus; Staphylococcus aureus, oxacillin-resistant S. aureus, Oxa-R (42)): 0.12 µg/mL | MIC90 (S. aureus; Staphylococcus aureus, oxacillin-resistant S. aureus, Oxa-R (42), read-out: MIC90): > 8 µg/mL | MIC (S. aureus; Staphylococcus aureus, oxacillin-resistant S. aureus, Oxa-R (42), read-out: MIC Mode): 0.12 µg/mL | MIC50 (S. aureus; Staphylococcus aureus, oxacillin-susceptible S. aureus, Oxa-S (20)): 0.12 µg/mL | MIC90 (S. aureus; Staphylococcus aureus, oxacillin-susceptible S. aureus, Oxa-S (20), read-out: MIC90): > 8 µg/mL | MIC (S. aureus; Staphylococcus aureus, oxacillin-susceptible S. aureus, Oxa-S (20), read-out: MIC Mode): 0.12 µg/mL | MIC50 (S. aureus; Staphylococcus aureus, recent clinical isolates of S. aureus, All (62)): 0.12 µg/mL | MIC90 (S. aureus; Staphylococcus aureus, recent clinical isolates of S. aureus, All (62), read-out: MIC90): > 8 µg/mL | MIC (S. aureus; Staphylococcus aureus, recent clinical isolates of S. aureus, All (62), read-out: MIC Mode): 0.12 µg/mL | MIC (S. aureus; Table 12, S. aureus 25-670, high level mupirocin-resistant, agent alone): >128 8 g/mL | MICs, high level resistance (mupA) ([2]; high level mupirocin resistance, plasmid-encoded IRS enzyme): > 512 µg/mL | MIC's, low level resistance ([2]; low level mupirocin resistance (mutations in chromosomal isoleucyl tRNA synthetase)): 8 to 256 µg/mL | MIC [3]: 0.06 µg/mL (≈ 0.12 µM)
